# According to US8609695B2, “Methods of treating and/or suppressing insulin resistance” (Endorecherche, Inc., priority 1999, dated 2013):
# Key:
# [1] = system: OVX Sprague-Dawley Rat; assay: 11-month combination treatment DHEA + EM-800, body weight (Example 2); format: in vivo; details: OVX rats, 11 months
# From the text: 1.1 Test Compounds: • DHEA: Available from Steraloids Inc. Wilton, N.H. Lot: H137; • EM-800 is synthesized at the UCPO Department of Lab. of Mol. Endo., CHUL.
# 1.2 Vehicle • a) Gelatin: Lab-Grade, ACP Chemicals Inc., Montreal, Qc. Lot# F0195 • b) Ethanol: Commercial Alcohols Inc., Brampton, Ontario. Lot No. 11296 • c) Polyethylene Glycol-600 (PEG-600): Omega Chemical Company Inc., Lévis, Quebec. Lot#: 00-0117-EZ • d) Normal Saline: 0.9% Sodium Chloride irrigation USP. Abbott Laboratories Limited, St-Laurent, Qc. • e) Propylene Glycol (1, 2-Propanediol, PPG): Sigma Chemical Co., St-Louis, Mo. • g) Vehicle 1: 4% ETOH-4% PEG-600-1% gelatin-0.9% NaCl—H2O for Subcutaneous Injection. • h) Vehicle 2: 50% ETOH-50% PPG for Topical Application.
# 3.1 Perapartion of Vehicle and Test Articles • a) Preparation of EM-800: • EM-800 or both of them will be dissolved in ETOH:PEG-600 (1:1) with agitation on Fisher Scientific Stirring Hot Plate, then, 1% GNS will be added to the required volume. • b) Preparation of DHEA: • DHEA is dissolved in 50% ETOH, 50% PPG by agitation.
# 3.2 Animal Preparation and Treatments • Animals will be treated once daily as indicated on Item 6.1. DHEA, prepared in 50% ETOH, 50% PPG, will be percutaneously applied (P.C.) to corresponding animals once daily (I.D.) in a volume of 0.5 ml. […]
# [2] = system: lean and obese Zucker male rats; assay: Energy balance and lipid-lipoprotein metabolism in Zucker male rats (Example 8A); format: in vivo, Rattus norvegicus; details: for Lipoprotein lipase activity White retroperitoneal / Lipoprotein lipase activity soleus / Plasma glucose / Plasma insulin / Plasma total cholesterol / Plasma triglycerides / Weight gain: 2.5 mg/kg orally once daily, 14 days; for decrease of body weight gain / reduction of plasma insulin: 2.5 mg/kg/day
# Protocol: The objective of this study was to determine the effect of EM-652.HCl on energy balance and lipid-lipoprotein metabolism in lean and obese Zucker male rats. For this purpose, EM-652.HCl (2.5 mg/kg) was administered orally (gavage) once daily for 14 days to intact lean and obese Zucker male rats.
# d) Diet: During the acclimation period, rats received a commercial rodent diet (Purina, #5075) and tap water ad libitum. During study period, rats received the following diet (diet #3) composed of (g/100 g): Starch, 31.2; Dextrose, 31.2; Casein, 20.0; Corn oil, 6.4; dl-Methionine, 0.3; Vitamin mix, 1.0; AIN-76 mineral mix, 4.9; Fiber, 5.0.
# Test groups: Sixteen lean and sixteen obese intact male rats were assigned to 4 groups of 8 rats for conduct of the study outlined below
# Administration of the tested compound or vehicle started on Day 1 of the study. The tested compound EM-652.HCl was given as suspension in 0.4% methylcellulose by oral gavage (0.5 ml/gavage/rat) once daily for 14 days. Rats from control groups received the vehicle alone (0.5 ml/gavage/rat) for the same time period.
# During the acclimation period, animals were weighed one day prior to the start of dosing for randomization. Then, rats were weighed on the first dosing day and every 2 days thereafter as well as on the day of necropsy. Body weights were recorded with a precision of 1 g.
# Following an approximative 6-hour fasting period, animals were necropsied (approximately 30 hours after the last dosing). They were anesthesized with ketamine-xylazine and blood drawn by cardiac punction.
# Blood lipids (Total cholesterol (CHOL) and Triglycerides (TG)) and glucose were measured on frozen plasma samples using the Boehringer Mannheim Diagnostic Hitachi 911 Analyzer (Boehringer Mannheim Diagnostic Laboratory Systems). Circulating hormones and substrates (Leptin, Insulin) were measured on frozen plasma samples with the following kits: • Leptin: Linco RLA kit • Insulin: Linco RIA kit Organs and Tissues Collected:
# The retroperitoneal adipose tissue and the soleus (muscle) were collected and frozen in liquid nitrogen for further determination of lipoprotein lipase (LPL) activity. The prostate, testes (right and left together) and right seminal vesicle (empty of fluid) were weighed. The right seminal vesicles were discarded.
# [3] = system: human breast cancer MCF-7 cells; assay: Proliferation of MCF-7 cell line, DNA content (Example 12); format: cell-based
# From the text: MCF-7 human breast cancer cells were obtained from the American Type Culture Collection # HTB 22 at passage 147 and routinely grown in phenol red-free Dulbecco's Modified Eagle's-Ham's F12 medium, the supplements mentioned above and 5% FBS. The MCF-7 human breast adenocarcinoma cell line was derived from the pleural effusion of a patient. MCF-7 cells were used between passages 148 and 165 and subcultured weekly.
# Cells in their late logarithmic growth phase were harvested with 0.1% pancreatin (Sigma) and resuspended in the appropriate medium containing 50 ng bovine insulin/ml and 5% (v/v) FBS treated twice with dextran-coated charcoal to remove endogenous steroids. Cells were plated in 24-well Falcon plastic culture plates (2 cm2/well) at the indicated density and allowed to adhere to the surface of the plates for 72 h. […] Control cells received only the ethanolic vehicle (0.1% EtOH,v/v). Cells were incubated for the specified time intervals with medium changes at 2- or 3-day intervals. Cell number was determined by measurement of DNA content.
# Dose-response curves as well IC50 values were calculated using a weighted iterative nonlinear least-squares regression. All results are expressed as means±SEM.
smiles,measurement,setting,value
"C[C@]12CC[C@H](O)CC1=CC[C@@H]1[C@@H]2CC[C@]2(C)C(=O)CC[C@@H]12 [DHEA, dehydroepiandrosterone]",inhibition of the OVX stimulation of body weight,"[1]; DHEA 12.5 mg daily, EM-800 daily",87%
same,Total weight,"[1]; DHEA 12.5 mg/day/rat percutaneous, EM-800 100 μg/day/rat s.c.",490.8 ± 24.1 g
"CC1=C(c2ccc(O)cc2)[C@H](c2ccc(OCCN3CCCCC3)cc2)Oc2cc(O)ccc21.Cl [EM-652.HCl, (S)-(+)-7-hydroxy-3-(4′-hydroxyphenyl)-4-methyl-2-(4″-(2′″-piperidino-ethoxy)phenyl)-2H-1-benxopyran hydrochloride]",Lipoprotein lipase activity White retroperitoneal,[2]; lean Zucker male rats,1701 ± 348 μU/g protein
same,Lipoprotein lipase activity soleus,[2]; lean Zucker male rats,69.5 ± 8.4 μU/g protein
same,Plasma glucose,[2]; lean Zucker male rats,9.35 ± 0.51 mmol/L
same,Plasma insulin,[2]; lean Zucker male rats,0.062 ± 0.005 nmol/L
same,Plasma total cholesterol,[2]; lean Zucker male rats,1.18 ± 0.09 mmol/L
same,Plasma triglycerides,[2]; lean Zucker male rats,1.52 ± 0.13 mmol/L
same,Weight gain,[2]; lean Zucker male rats,44.9 ± 3.5 g
same,decrease of body weight gain,[2]; lean male Zucker rats,38%
same,reduction of plasma insulin,[2]; lean male Zucker rats,35%
same,Lipoprotein lipase activity White retroperitoneal,[2]; obese Zucker male rats,7046 ± 1185 μU/g protein
same,Lipoprotein lipase activity soleus,[2]; obese Zucker male rats,58.1 ± 4.6 μU/g protein
same,Plasma glucose,[2]; obese Zucker male rats,11.84 ± 0.62 mmol/L
same,Plasma insulin,[2]; obese Zucker male rats,0.475 ± 0.087 nmol/L
same,Plasma total cholesterol,[2]; obese Zucker male rats,2.28 ± 0.25 mmol/L
same,Plasma triglycerides,[2]; obese Zucker male rats,7.16 ± 1.06 mmol/L
same,Weight gain,[2]; obese Zucker male rats,71.6 ± 3.3 g
same,decrease of body weight gain,[2]; obese male Zucker rats,35%
same,reduction of plasma insulin,[2]; obese male Zucker rats,57%
same,IC50,"[3]; Homo sapiens, MCF7, read-out: Inhibition of 1 nM E2 stimulation of DNA by tested compounds IC50",796 pM
same,EC50,"[3]; Homo sapiens, MCF7, MCF-7 cells, text summary of table 12, read-out: EC50 of inhibition (antiestrogen activity)",800 pM
same,Stimulation of DNA by tested compounds % of 1 nM E2 stimulation,"[3]; MCF-7 cells, absence of E2",N.S.
